Measured values reported in US10981894B2, “Melanocortin subtype-2 receptor (MC2R) antagonists and uses thereof” (Crinetics Pharmaceuticals, Inc., priority 2018, dated 2021).

Each compound was assayed against hMC2 receptor (Homo sapiens, UniProt Q01718) (assay: hMC2 membrane binding assay ([125I]ACTH (1-39) Tyr23, SPA)). Conditions: crude hMC2R membranes from CRE-bla-CHO-K1 cells expressing hMC2 receptor and hMRAP; [125I]ACTH (1-39) Tyr23 0.2 nM; 1.5 hours at room temperature; read-out: MC2R binding potency.
Chain of hMC2 receptor (Q01718 whole entry): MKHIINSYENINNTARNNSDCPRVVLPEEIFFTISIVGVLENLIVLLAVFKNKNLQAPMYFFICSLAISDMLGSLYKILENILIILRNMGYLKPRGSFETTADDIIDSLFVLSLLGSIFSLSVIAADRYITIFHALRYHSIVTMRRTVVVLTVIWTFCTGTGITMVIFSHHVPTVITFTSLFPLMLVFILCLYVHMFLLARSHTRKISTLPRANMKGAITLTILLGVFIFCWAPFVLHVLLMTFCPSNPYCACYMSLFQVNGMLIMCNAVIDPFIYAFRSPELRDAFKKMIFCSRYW
Chain of hMC2 receptor (Q8TCY5 whole entry partner): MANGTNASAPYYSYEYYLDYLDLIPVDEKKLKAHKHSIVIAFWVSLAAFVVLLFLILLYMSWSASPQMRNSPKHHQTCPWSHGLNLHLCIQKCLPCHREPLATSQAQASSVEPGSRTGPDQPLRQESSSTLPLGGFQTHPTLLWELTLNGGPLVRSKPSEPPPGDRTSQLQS
Design: scale not given here
Method: Crude membrane fractions are prepared from CRE-bla-CHO-K1 cells stably expressing hMC2 receptor and hMRAP accessory protein (Thermo Fisher). The cells are grown to 85-100% confluence on standard tissue culture dishes in GlutaMax DMEM growth media (Gibco) with following additives: 10% dialyzed FBS (Gemini), 0.1 mM NEAA (Gibco), 25 mM HEPES (Gibco), 5 μg/mL blasticidin (Goldbio), 100 μg/mL zeocin (Invitrogen), 600 μg/mL hygromycin (Goldbio). To prepare membranes, cells are scraped and collected in 1× Dulbecco's phosphate buffered saline (Corning) and then pelleted at 1000 RPM's. The cell pellet is reconstituted in membrane preparation buffer (20 mM HEPES, 6 mM MgCl2 and 1 mM EGTA, protease inhibitor tablets (Pierce) adjusted to pH 7.4), homogenized using a dounce homogenizer, and the resulting membrane fraction is pelleted by centrifugation at 12,000 RPM's. The membrane pellet is resuspended in membrane preparation buffer, snap freezed and stored at −80° C. for later use.
Binding Assay for hMC2 Antagonists Protocol:
The hMC2 membrane binding assay utilizes the following components: radiolabel [^125I]ACTH (1-39) Tyr23 (PerkinElmer), wheatgerm agglutinin coated PVT SPA beads (PerkinElmer), crude hMC2R membranes, and compounds. Briefly hMC2R membranes are incubated with SPA beads in binding assay buffer (50 mM HEPES, 5 mM MgCl2, 1 mM CaCl2, 0.2% BSA, protease inhibitor tablets (Pierce) adjusted to pH7.4) prior to assay initiation. A dose response of compound (the final concentration of compound are typically 0-10,000 nM), SPA membranes, and [^125I]ACTH (1-39) Tyr23 at a final concentration of 0.2 nM is plated in a 96-well assay plate and allowed to incubate 1.5 hours at room temperature. Assay plates are read using a Top Count NXT and Ki values for compounds are determined using a GraphPad Prism 6 non-linear regression analysis.

Row | Structure (SMILES) | Ki [nM]
1 | CCOc1ncccc1-c1ccc(N2CCN(C(=O)n3ccc4cccc(Cl)c43)C[C@H]2CC)c(C(=O)N[C@@H]2CCN(C)C2)n1 [Compound 1-428, 5-[(2R)-4-(7-chloro-1H-indole-1-carbonyl)-2-ethylpiperazin-1-yl]-2′-ethoxy-N-[(3R)-1-methylpyrrolidin-3-yl]-[2,3′-bipyridine]-6-carboxamide] | < 10
2 | CCOc1ccccc1-c1ccc(N2CCN(C(=O)N3CCc4cc(F)cc(Cl)c43)C[C@H]2CC)c(C(=O)N[C@H]2CCN(C)C2)n1 [Compound 1-421, 3-[(2R)-4-(7-chloro-5-fluoro-2,3-dihydro-1H-indole-1-carbonyl)-2-ethylpiperazin-1-yl]-6-(2-ethoxyphenyl)-N-[(3S)-1-methylpyrrolidin-3-yl]pyridine-2-carboxamide] | < 10
3 | CCOc1ncccc1-c1ccc(N2CCN(C(=O)c3ccc(Cl)cc3C(F)(F)F)C[C@H]2CC)c(C(=O)NC[C@H]2CCN2C)n1 [Compound 1-231, 5-[(2R)-4-[4-chloro-2-(trifluoromethyl)benzoyl]-2-ethylpiperazin-1-yl]-2′-ethoxy-N-{[(2R)-1-methylazetidin-2-yl]methyl}-[2,3′-bipyridine]-6-carboxamide] | < 10
4 | CCOc1ccccc1-c1ccc(N2CCN(C(=O)c3ccc(F)cc3C(F)F)C[C@H]2CC)c(C(=O)N[C@@H]2CCNC2)n1 [Compound 1-292, 3-[(2R)-4-[2-(difluoromethyl)-4-fluorobenzoyl]-2-ethylpiperazin-1-yl]-6-(2-ethoxyphenyl)-N-[(3R)-pyrrolidin-3-yl]pyridine-2-carboxamide] | < 10
5 | CCOc1ncccc1-c1ccc(N2CCN(C(=O)c3ccc(Cl)cc3C(F)(F)F)C[C@H]2CC)c(C(=O)NC[C@H]2COCCN2)c1 [Compound 1-138, 2-[(2R)-4-[4-chloro-2-(trifluoromethyl)benzoyl]-2-ethylpiperazin-1-yl]-5-(2-ethoxypyridin-3-yl)-N-{[(3S)-morpholin-3-yl]methyl}benzamide] | < 10
6 | CCOc1ccccc1-c1ccc(N2CCN(C(=O)n3ccc4cccc(Cl)c43)C[C@H]2CC)c(C(=O)N[C@@H]2CCN(C)C2)n1 [Compound 1-431, 3-[(2R)-4-(7-chloro-1H-indole-1-carbonyl)-2-ethylpiperazin-1-yl]-6-(2-ethoxyphenyl)-N-[(3R)-1-methylpyrrolidin-3-yl]pyridine-2-carboxamide] | < 10
7 | CCOc1ccc(C(=O)N2CCN(c3ccc(-c4cccnc4OCC)nc3C(=O)NCCNC)[C@H](CC)C2)c(C(F)(F)F)n1 [Compound 1-181, 2′-ethoxy-5-[(2R)-4-[6-ethoxy-2-(trifluoromethyl)pyridine-3-carbonyl]-2-ethylpiperazin-1-yl]-N-[2-(methylamino)ethyl]-[2,3′-bipyridine]-6-carboxamide] | < 10
8 | CCOc1cccnc1-c1ccc(N2CCN(C(=O)c3ccc(C(F)(F)F)cc3Cl)C[C@H]2CC)c(C(=O)NCCN)c1 [Compound 1-32, N-(2-aminoethyl)-2-[(2R)-4-[2-chloro-4-(trifluoromethyl)benzoyl]-2-ethylpiperazin-1-yl]-5-(3-ethoxypyridin-2-yl)benzamide] | 10 to 100
9 | CCOc1ncccc1-c1ccc(N2CCN(C(=O)c3ccc(Cl)cc3C(F)(F)F)C[C@H]2CC)c(C(=O)NCC2CNC2)n1 [Compound 1-222, N-[(azetidin-3-yl)methyl]-5-[(2R)-4-[4-chloro-2-(trifluoromethyl)benzoyl]-2-ethylpiperazin-1-yl]-2′-ethoxy-[2,3′-bipyridine]-6-carboxamide] | < 10
10 | CCOc1ncccc1-c1ccc(N2CCN(C(=O)c3c(F)cc(C)cc3-c3ccc(CN)cc3)C[C@H]2CC)c(C(=O)NCCN)c1 [Compound 1-44, N-(2-aminoethyl)-2-[(2R)-4-[4′-(aminomethyl)-3-fluoro-5-methyl-[1,1′-biphenyl]-2-carbonyl]-2-ethylpiperazin-1-yl]-5-(2-ethoxypyridin-3-yl)benzamide] | < 10
11 | CCOc1ncccc1-c1ccc(N2CCN(C(=O)c3ccc(C(F)(F)F)nc3N(C)C)C[C@H]2CC)c(C(=O)NCCN)c1 [Compound 1-76, N-(2-aminoethyl)-2-[(2R)-4-[2-(dimethylamino)-6-(trifluoromethyl)pyridine-3-carbonyl]-2-ethylpiperazin-1-yl]-5-(2-ethoxypyridin-3-yl)benzamide] | < 10
12 | CCOc1ncccc1-c1ccc(N2CCN(C(=O)n3ccc4cc(F)cc(C#N)c43)C[C@H]2CC)c(C(=O)N[C@@H]2CCN(C)C2)n1 [Compound 1-438, 5-[(2R)-4-(7-cyano-5-fluoro-1H-indole-1-carbonyl)-2-ethylpiperazin-1-yl]-2′-ethoxy-N-[(3R)-1-methylpyrrolidin-3-yl]-[2,3′-bipyridine]-6-carboxamide] | < 10
13 | CCOc1ncccc1-c1ccc(N2CCN(C(=O)C3(C(F)(F)F)CCCC3)C[C@H]2CC)c(C(=O)NCC2=NCCN2C)n1 [Compound 1-415, 2′-ethoxy-5-[(2R)-2-ethyl-4-[1-(trifluoromethyl)cyclopentanecarbonyl]piperazin-1-yl]-N-[(1-methyl-4,5-dihydro-1H-imidazol-2-yl)methyl]-[2,3′-bipyridine]-6-carboxamide] | < 10
14 | CCOc1ccccc1-c1ccc(N2CCN(C(=O)c3ccc(C(F)(F)F)cc3Cl)C[C@H]2CC)c(C(=O)NCCCN)c1 [Compound 1-23, N-(3-aminopropyl)-4-[(2R)-4-[2-chloro-4-(trifluoromethyl)benzoyl]-2-ethylpiperazin-1-yl]-2′-ethoxy-[1,1′-biphenyl]-3-carboxamide] | 10 to 100

Second part, the compound after the results:

Row | Ki [nM] | Structure (SMILES)
15 | < 10 | CCOc1ncccc1-c1ccc(N2CCN(C(=O)c3ccc(Cl)cc3C(F)(F)F)C[C@H]2CC)c(C(=O)N[C@@H]2CCNC2)n1 [Compound 1-151, 5-[(2R)-4-[4-chloro-2-(trifluoromethyl)benzoyl]-2-ethylpiperazin-1-yl]-2′-ethoxy-N-[(3R)-pyrrolidin-3-yl]-[2,3′-bipyridine]-6-carboxamide]
16 | < 10 | CCOc1ncccc1-c1ccc(N2CCN(C(=O)c3ccc(Cl)cc3C(F)(F)F)C[C@H]2CC)c(C(=O)NCC2=NCCN2)c1F [Compound 1-188, 6-[(2R)-4-[4-chloro-2-(trifluoromethyl)benzoyl]-2-ethylpiperazin-1-yl]-N-[(4,5-dihydro-1H-imidazol-2-yl)methyl]-3-(2-ethoxypyridin-3-yl)-2-fluorobenzamide]
17 | < 10 | CCOc1ncccc1-c1ccc(N2CCN(C(=O)c3ccc(C(F)(F)F)s3)C[C@H]2CC)c(C(=O)N[C@@H]2CCNC2)n1 [Compound 1-368, 2′-ethoxy-5-[(2R)-2-ethyl-4-[5-(trifluoromethyl)thiophene-2-carbonyl]piperazin-1-yl]-N-[(3R)-pyrrolidin-3-yl]-[2,3′-bipyridine]-6-carboxamide]
18 | < 10 | CCOc1ncccc1-c1ccc(N2CCN(C(=O)N3CCC[C@H]3C(F)(F)F)C[C@H]2CC)c(C(=O)N[C@H]2CCN(C)C2)n1 [Compound 1-373, 2′-ethoxy-5-[(2R)-2-ethyl-4-[(2S)-2-(trifluoromethyl)pyrrolidine-1-carbonyl]piperazin-1-yl]-N-[(3S)-1-methylpyrrolidin-3-yl]-[2,3′-bipyridine]-6-carboxamide]
19 | < 10 | CCOc1ccccc1-c1ccc(N2CCN(C(=O)C3(C(F)(F)F)CCC3)C[C@H]2CC)c(C(=O)N[C@@H]2CN3CCC2CC3)n1 [Compound 1-410, N-[(3S)-1-azabicyclo[2.2.2]octan-3-yl]-6-(2-ethoxyphenyl)-3-[(2R)-2-ethyl-4-[1-(trifluoromethyl)cyclobutanecarbonyl]piperazin-1-yl]pyridine-2-carboxamide]
20 | < 10 | CCOc1ccccc1-c1ccc(N2CCN(C(=O)c3ccc(Cl)cc3C(F)F)C[C@H]2CC)c(C(=O)N[C@@H]2CCNC2)n1 [Compound 1-288, 3-[(2R)-4-[4-chloro-2-(difluoromethyl)benzoyl]-2-ethylpiperazin-1-yl]-6-(2-ethoxyphenyl)-N-[(3R)-pyrrolidin-3-yl]pyridine-2-carboxamide]
21 | < 10 | CCOc1ncccc1-c1ccc(N2CCN(C(=O)N3CCc4cccc(C#N)c43)C[C@H]2CC)c(C(=O)N[C@@H]2CCNC2)n1 [Compound 1-365, 5-[(2R)-4-(7-cyano-2,3-dihydro-1H-indole-1-carbonyl)-2-ethylpiperazin-1-yl]-2′-ethoxy-N-[(3R)-pyrrolidin-3-yl]-[2,3′-bipyridine]-6-carboxamide]
22 | < 10 | CCOc1ncccc1-c1ccc(N2CCN(C(=O)c3ccc(F)cc3C(F)(F)F)C[C@H]2CC)c(C(=O)NCC2=NCCN2)c1F [Compound 1-182, N-[(4,5-dihydro-1H-imidazol-2-yl)methyl]-3-(2-ethoxypyridin-3-yl)-6-[(2R)-2-ethyl-4-[4-fluoro-2-(trifluoromethyl)benzoyl]piperazin-1-yl]-2-fluorobenzamide]
